{
  "source": "patent EP0391644B1",
  "about": "“Aryl-substituted rhodanine derivatives” (ELI LILLY AND COMPANY, priority 1989, dated 1990)",
  "note": "Counter-ions that a name gives are not always drawn.",
  "data": [
    {"system": "adjuvant-induced arthritis", "experiment": "Developing Adjuvant-Induced Arthritis Test in Rats", "type": "in vivo, male Lewis-Wistar rats", "settings": "50 mg/kg P.O. x 29; AUC of uninjected paw volumes, Days 16 through 30", "units": {"% Inhibition of Uninjected Paw Volume Inflammation": "%"}, "values": [
      {"compound": "5-{[3,5-bis(1,1-dimethylethyl)-4-hydroxyphenyl]methylene}-3-[2-(4-morpholinyl)ethyl]amino-4-thiazolidinone [Example 49]", "% Inhibition of Uninjected Paw Volume Inflammation": 36}
    ]},
    {"system": "adjuvant-induced arthritis", "experiment": "Developing Adjuvant-Induced Arthritis Test in Rats", "type": "in vivo, male Lewis-Wistar rats", "settings": "Rattus norvegicus, po, 720 h; 25 mg/kg P.O. x 29; AUC of uninjected paw volumes, Days 16 through 30; read-out: % Inhibition of Uninjected Paw Volume Inflammation", "units": {"inhibition in vivo at 25 mg/kg": "%"}, "values": [
      {"compound": "CCNN1CSC(=Cc2cc(C(C)(C)C)c(O)c(C(C)(C)C)c2)C1=O", "note": "[Example 52, 5-{[3,5-bis(1,1-dimethylethyl)-4-hydroxyphenyl]methylene}-3-(ethylamino)-4-thiazolidinone]", "inhibition in vivo at 25 mg/kg": 45}
    ]},
    {"system": "adjuvant-induced arthritis", "experiment": "Developing Adjuvant-Induced Arthritis Test in Rats", "type": "in vivo, male Lewis-Wistar rats", "settings": "Rattus norvegicus, po, 720 h; 50 mg/kg P.O. x 29; AUC of uninjected paw volumes, Days 16 through 30; read-out: % Inhibition of Uninjected Paw Volume Inflammation", "units": {"inhibition in vivo at 50 mg/kg": "%"}, "values": [
      {"compound": "C=CCN1CSC(=Cc2cc(C(C)(C)C)c(O)c(C(C)(C)C)c2)C1=O", "note": "[Example 24, 5-{[3,5-bis(1,1-dimethylethyl)-4-hydroxyphenyl]methylene}-3-(2-propenyl)-4-thiazolidinone]", "inhibition in vivo at 50 mg/kg": 0},
      {"compound": "CCN(C)N1CSC(=Cc2cc(C(C)(C)C)c(O)c(C(C)(C)C)c2)C1=O", "note": "[Example 40, 5-{[3,5-bis(1,1-dimethylethyl)-4-hydroxyphenyl]methylene}-3-(ethylmethylamino)-4-thiazolidinone]", "inhibition in vivo at 50 mg/kg": 23},
      {"compound": "Cc1cc(C=C2SCN(N)C2=O)cc(C(C)(C)C)c1O", "note": "[Example 59, 3-amino-5-{[3-(1,1-dimethylethyl)-4-hydroxy-5-methylphenyl]methylene}-4-thiazolidinone]", "inhibition in vivo at 50 mg/kg": 19.8},
      {"compound": "CC(C)(C)c1cc(C=C2SCN(CCN)C2=O)cc(C(C)(C)C)c1O", "note": "[Example 27, 5-{[3,5-bis(1,1-dimethylethyl)-4-hydroxyphenyl]methylene}-3-(2-aminoethyl)-4-thiazolidinone]", "inhibition in vivo at 50 mg/kg": 40},
      {"compound": "CN1C(=O)C(=Cc2cc(C(C)(C)C)c(O)c(C(C)(C)C)c2)SC1O", "note": "(stereo not drawn) [Example 71, 5-{[3,5-bis(1,1-dimethylethyl)-4-hydroxyphenyl]methylene}-2-hydroxy-3-methyl-4-thiazolidinone]", "inhibition in vivo at 50 mg/kg": 48.2},
      {"compound": "CN(C)N1C(=O)C(=Cc2cc(C(C)(C)C)c(O)c(C(C)(C)C)c2)SC1=S", "note": "[Example 19, 5-{[3,5-bis(1,1-dimethylethyl)-4-hydroxyphenyl]methylene}-3-dimethylamino-2-thioxo-4-thiazolidinone]", "inhibition in vivo at 50 mg/kg": 20.7},
      {"compound": "CCCNCCN1CSC(=Cc2cc(C(C)(C)C)c(O)c(C(C)(C)C)c2)C1=O", "note": "[Example 54, 5-{[3,5-bis(1,1-dimethylethyl)-4-hydroxyphenyl]methylene}-3-[2-(propylamino)ethyl]-4-thiazolidinone]", "inhibition in vivo at 50 mg/kg": 37.6},
      {"compound": "CNN1CSC(=Cc2cc(C(C)(C)C)c(O)c(C(C)(C)C)c2)C1=O", "note": "[Example 47, 5-{[3,5-bis(1,1-dimethylethyl)-4-hydroxyphenyl]methylene}-3-(methylamino)-4-thiazolidinone]", "inhibition in vivo at 50 mg/kg": 69.3},
      {"compound": "CC(C)(C)c1cc(C=C2SCN(CCNCCO)C2=O)cc(C(C)(C)C)c1O", "note": "[Example 30, 5-{[3,5-bis(1,1-dimethylethyl)-4-hydroxyphenyl]methylene}-3-[2-(2-hydroxyethylamino)ethyl]-4-thiazolidinone]", "inhibition in vivo at 50 mg/kg": 44.1},
      {"compound": "Cc1cc(C=C2SCN(C)C2=O)cc(C)c1O", "note": "[Example 68, 5-[(4-hydroxy-3,5-dimethylphenyl)methylene]-3-methyl-4-thiazolidinone]", "inhibition in vivo at 50 mg/kg": 6.5},
      {"compound": "CC(C)(C)c1cc(C=C2SCN(N3CCOCC3)C2=O)cc(C(C)(C)C)c1O", "note": "[Example 45, 5-{[3,5-bis(1,1-dimethylethyl)-4-hydroxyphenyl]methylene}-3-(4-morpholinyl)-4-thiazolidinone]", "inhibition in vivo at 50 mg/kg": 36},
      {"compound": "CC(=O)OCCCc1cc(C=C2SCN(N(C)C)C2=O)cc(CCCOC(C)=O)c1O", "note": "[Example 64, 5-{[3,5-bis[3-(acetyloxy)propyl]-4-hydroxyphenyl]methylene}-3-(dimethylamino)-4-thiazolidinone]", "inhibition in vivo at 50 mg/kg": 5.5},
      {"compound": "CC(C)(C)c1cc(C=C2SCN(NCCO)C2=O)cc(C(C)(C)C)c1O", "note": "[Example 55, 5-{[3,5-bis(1,1-dimethylethyl)-4-hydroxyphenyl]methylene}-3-[(2-hydroxyethyl)amino]-4-thiazolidinone]", "inhibition in vivo at 50 mg/kg": 96.2},
      {"compound": "CC(C)(C)c1cc(C=C2SCN(N3CCCCC3)C2=O)cc(C(C)(C)C)c1O", "note": "[Example 44, 5-{[3,5-bis(1,1-dimethylethyl)-4-hydroxyphenyl]methylene}-3-(1-piperidinyl)-4-thiazolidinone]", "inhibition in vivo at 50 mg/kg": 15},
      {"compound": "CC(C)(C)c1cc(C=C2SCN(Cc3nnn[nH]3)C2=O)cc(C(C)(C)C)c1O", "note": "[Example 39, 5-{[3,5-bis(1,1-dimethylethyl)-4-hydroxyphenyl]methylene}-3-(1H-tetrazol-5-ylmethyl)-4-thiazolidinone]", "inhibition in vivo at 50 mg/kg": 2},
      {"compound": "CC(C)(C)c1cc(C=C2SCN(CCNCc3ccccc3)C2=O)cc(C(C)(C)C)c1O", "note": "[Example 33, 5-{[3,5-bis(1,1-dimethylethyl)-4-hydroxyphenyl]methylene}-3-{2-[(phenylmethyl)amino]ethyl}-4-thiazolidinone hydrochloride]", "inhibition in vivo at 50 mg/kg": 30.1},
      {"compound": "CC(C)(C)c1cc(CC2SC(=S)NC2=O)cc(C(C)(C)C)c1O", "note": "(stereo not drawn) [Example 8, 5-{[3,5-bis(1,1-dimethylethyl)-4-hydroxyphenyl]methyl}-2-thioxo-4-thiazolidinone]", "inhibition in vivo at 50 mg/kg": 4},
      {"compound": "Cc1cc(C=C2SCNC2=O)cc(C(C)(C)C)c1O", "note": "[Example 58, 5-{[3-(1,1-dimethylethyl)-4-hydroxy-5-methylphenyl]methylene}-4-thiazolidinone]", "inhibition in vivo at 50 mg/kg": 16.9},
      {"compound": "Cc1cc(C=C2SC(=S)N(N(C)C)C2=O)cc(C(C)(C)C)c1O", "note": "[Example 60, 5-{[3-(1,1-dimethylethyl)-4-hydroxy-5-methylphenyl]methylene}-3-dimethylamino-2-thioxo-4-thiazolidinone]", "inhibition in vivo at 50 mg/kg": 40.6}
    ]}
  ]
}
